Data taken from patent US11524966B1 (Valo Early Discovery, Inc., priority 2017, dated 2022).
pIC50: −log10 of the molar value.

These molecules were tested against T1, USP28 (His-tagged USP28-FL-mammalian) (Homo sapiens, UniProt Q96RU2) (assay: Ubiquitin-Rhodamine 110 Assay for USP28 Activity, Example A-1(a)). Details: Ubiquitin-Rhodamine 110 assay, Example A-1(a); read-out: USP28 A-1(a) IC50 range.
T1 construct: Expression of USP28 (1-1077)-TEV-6*His (pTT5 vector); made in house; host or cells: Expi293f cells (pTT5 vector)
T1 sequence (Q96RU2 1-1077): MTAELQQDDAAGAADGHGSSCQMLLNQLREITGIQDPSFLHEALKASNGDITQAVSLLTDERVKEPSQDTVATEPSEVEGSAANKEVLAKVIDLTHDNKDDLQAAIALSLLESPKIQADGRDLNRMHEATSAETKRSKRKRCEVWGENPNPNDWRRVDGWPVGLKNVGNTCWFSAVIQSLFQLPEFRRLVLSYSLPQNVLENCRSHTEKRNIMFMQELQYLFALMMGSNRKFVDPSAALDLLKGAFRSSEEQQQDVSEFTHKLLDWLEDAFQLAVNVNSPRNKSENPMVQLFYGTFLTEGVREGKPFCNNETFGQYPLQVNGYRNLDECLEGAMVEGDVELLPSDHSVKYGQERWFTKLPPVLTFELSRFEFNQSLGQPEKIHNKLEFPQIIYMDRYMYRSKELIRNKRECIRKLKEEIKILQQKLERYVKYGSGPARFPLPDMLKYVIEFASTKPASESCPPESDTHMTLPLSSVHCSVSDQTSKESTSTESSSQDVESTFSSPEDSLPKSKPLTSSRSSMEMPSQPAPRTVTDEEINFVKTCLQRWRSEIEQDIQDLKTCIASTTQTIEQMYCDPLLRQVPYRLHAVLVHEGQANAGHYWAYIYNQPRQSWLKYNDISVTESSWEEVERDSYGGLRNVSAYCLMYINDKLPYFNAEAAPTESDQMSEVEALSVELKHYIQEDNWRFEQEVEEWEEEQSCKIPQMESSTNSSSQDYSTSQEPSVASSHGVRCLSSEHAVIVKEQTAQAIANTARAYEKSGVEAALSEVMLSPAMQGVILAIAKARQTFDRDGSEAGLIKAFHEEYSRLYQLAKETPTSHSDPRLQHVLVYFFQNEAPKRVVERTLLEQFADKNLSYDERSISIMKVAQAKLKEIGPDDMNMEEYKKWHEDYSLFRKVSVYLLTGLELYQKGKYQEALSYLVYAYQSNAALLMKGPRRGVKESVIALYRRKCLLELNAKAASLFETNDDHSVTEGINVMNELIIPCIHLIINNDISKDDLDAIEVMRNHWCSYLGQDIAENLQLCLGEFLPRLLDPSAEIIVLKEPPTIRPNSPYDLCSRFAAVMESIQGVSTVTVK
Format: biochemical
Procedure, shortened: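 Full-length His-tagged human USP28 (1-1077, Expi293f-expressed), […], with 25 nM Ub-Rh110 (<<Km) in pH 8.0 Tris buffer with BME, BGG, Triton X-100. 10-point dilutions (25 μM-1.3 nM), 45 min at room temperature, citric acid stop, fluorescence 485/535 nm; IC50 by 4-parameter fit.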

SMILES	pIC50
Cc1ccc2c(N)c(C(=O)N[C@H]3COc4cc(N5C[C@H](OC(C)C)[C@@H](N)C5)ccc4C3)sc2n1 [Example 202, 3-amino-N-[(3R)-7-[(3S,4S)-3-amino-4-(propan-2-yloxy)pyrrolidin-1-yl]-3,4-dihydro-2H-1-benzopyran-3-yl]6-methylthieno[2,3-b]pyridine-2-carboxamide]	7.30 to 9.00
CO[C@H]1CN(c2ccc3c(c2)CC[C@H](NC(=O)c2cnc4c(c2)C2CC2CN4)C3)C[C@@H]1N (stereo partly drawn) [Example 188, N-[(2S)-6-[(3S,4S)-3-amino-4-methoxypyrrolidin-1-yl]-1,2,3,4-tetrahydronaphthalen-2-yl]-5H,6H,6aH,7H,7aH-cyclopropa[c]1,8-naphthyridine-2-carboxamide]	5.70 to 6.70
O=C(N[C@H]1CCc2cc(N3CC4CCC(C3)N4)cc(F)c2C1)c1cnc2c(c1)[C@H]1C[C@H]1CN2 [Example 192, (6aR,7aS)-N-[(2S)-6-{3,8-diazabicyclo[3.2.1]octan-3-yl}-8-fluoro-1,2,3,4-tetrahydronaphthalen-2-yl]-5H,6H,6aH,7H,7aH-cyclopropa[c]1,8-naphthyridine-2-carboxamide]	6.70 to 7.30
Cc1cc(C)c2c(N)c(C(=O)N[C@H]3COc4cc(N5CC[C@@H]6CNC[C@@H]65)ccc4C3)sc2n1 [Example 227, N-[(3R)-7-[(3aR,6aR)-octahydropyrrolo[2,3-c]pyrrol-1-yl]-3,4-dihydro-2H-1-benzopyran-3-yl]-3-amino-4,6-dimethylthieno[2,3-b]pyridine-2-carboxamide]	7.30 to 9.00
Cc1ccc2c(N)c(C(=O)N[C@H]3Cc4ccc(N5CCNCC5)nc4[C@H](C)C3)sc2n1 [Example 208, 3-amino-6-methyl-N-[(6R,8R)-8-methyl-2-(piperazin-1-yl)-5,6,7,8-tetrahydroquinolin-6-yl]thieno[2,3-b]pyridine-2-carboxamide]	7.30 to 9.00
COC[C@@H]1CN(c2cc(F)c3c(c2)OC[C@H](NC(=O)c2sc4nc(C)ccc4c2N)C3)C[C@@H]1N [Example 250, 3-amino-N-[(3R)-7-[(3R,4R)-3-amino-4-(methoxymethyl)pyrrolidin-1-yl]-5-fluoro-3,4-dihydro-2H-1-benzopyran-3-yl]-6-methylthieno[2,3-b]pyridine-2-carboxamide]	7.30 to 9.00
Cc1cc(C)c2c(N)c(C(=O)N[C@H]3CCc4nc(N5CC[C@@H]6CNC[C@@H]65)ccc4C3)sc2n1 [Example 219, N-[(6S)-2-[(3aR,6aR)-octahydropyrrolo[2,3-c]pyrrol-1-yl]-5,6,7,8-tetrahydroquinolin-6-yl]-3-amino-4,6-dimethylthieno[2,3-b]pyridine-2-carboxamide]	7.30 to 9.00
Cc1ccc2c(N)c(C(=O)N[C@H]3COc4cc(N5CCC[C@@H]6CNC[C@@H]65)ccc4C3)sc2n1 [Example 242, N-[(3R)-7-[(4aR,7aR)-octahydro-1H-pyrrolo[3,4-b]pyridin-1-yl]-3 ,4-dihydro-2H-1-benzopyran-3-yl]-3-amino-6-methylthieno[2,3-b]pyridine-2-carboxamide]	7.30 to 9.00
Cc1ccc2c(N)c(C(=O)N[C@H]3COc4cc(N5C[C@H](N)C(C)(C)C5)ccc4C3)sc2n1 [Example 214, 3-amino-N-[(3R)-7-[(4R)-4-amino-3,3-dimethylpyrrolidin-1-yl]-3,4-dihydro-2H-1-benzopyran-3-yl]-6-methylthieno[2,3-b]pyridine-2-carboxamide]	7.30 to 9.00
N#Cc1c(N2CC3CCC(C2)N3)cc(F)c2c1CC[C@@H](NC(=O)c1cnc3c(c1)[C@@H]1C[C@@H]1CN3)C2 [Example 197, (6aS,7aR)-N-[(2R)-5-cyano-6-{3,8-diazabicyclo[3.2.1]octan-3-yl}-8-fluoro-1,2,3,4-tetrahydronaphthalen-2-yl]-5H,6H,6aH,7H,7aH-cyclopropa[c]1,8-naphthyridine-2-carboxamide]	< 5.70
COC[C@@H]1CN(c2ccc3c(c2)CC[C@H](NC(=O)c2sc4nc(C)ccc4c2N)C3)C[C@@H]1N [Example 252, 3-amino-N-[(2S)-6-[(3R,4R)-3-amino-4-(methoxymethyl)pyrrolidin-1-yl]-1,2,3,4-tetrahydronaphthalen-2-yl]-6-methylthieno[2,3-b]pyridine-2-carboxamide]	6.70 to 7.30
COC[C@H]1CN(c2cc(F)c3c(c2)OC[C@H](NC(=O)c2sc4nc(C)ccc4c2N)C3)C[C@H]1N [Example 251, 3-amino-N-[(3R)-7-[(3S,4S)-3-amino-4-(methoxymethyl)pyrrolidin-1-yl]-5-fluoro-3,4-dihydro-2H-1-benzopyran-3-yl]-6-methylthieno[2,3-b]pyridine-2-carboxamide]	7.30 to 9.00
Cc1ccc2c(N)c(C(=O)N[C@H]3COc4cc(N5CCO[C@H]6CNC[C@H]65)ccc4C3)sc2n1 [Example 184, N-[(3R)-7-[(4aR, 7aS)-octahydropyrrolo[3,4-b]morpholin-4-yl]-3,4-dihydro-2H-1-benzopyran-3-yl]-3-amino-6-methylthieno[2,3-b]pyridine-2-carboxamide]	7.30 to 9.00
Cc1cc(C)c2c(N)c(C(=O)N[C@H]3COc4cc(N5CC6CCC(C5)N6)c(C#N)c(F)c4C3)sc2n1 [Example 241, 3-amino-N-[(3R)-6-cyano-7-{3,8-diazabicyclo[3.2.1]octan-3-yl}-5-fluoro-3,4-dihydro-2H-1-benzopyran-3-yl]-4,6-dimethylthieno[2,3-b]pyridine-2-carboxamide]	7.30 to 9.00
CO[C@H]1CN(c2ccc3c(c2)OC[C@H](NC(=O)c2sc4nc(C)ccc4c2N)C3)C[C@@H]1NC(C)=O [Example 213, 3-amino-N-[(3R)-7-[(3S,4S)-3-acetamido-4-methoxypyrrolidin-1-yl]-3,4-dihydro-2H-1-benzopyran-3-yl]-6-methylthieno[2,3-b]pyridine-2-carboxamide]	6.70 to 7.30
Cc1ccc2c(N)c(C(=O)N[C@H]3COc4cc(N5C[C@H]6NCCC(F)(F)[C@H]6C5)ccc4C3)sc2n1 [Example 238, N-[(3R)-7-[(4aS,7aS)-4,4-difluoro-octahydro-1H-pyrrolo[3,4-b]pyridin-6-yl]-3,4-dihydro-2H-1-benzopyran-3-yl]-3-amino-6-methylthieno[2,3-b]pyridine-2-carboxamide]	7.30 to 9.00
Cc1ccc2c(N)c(C(=O)N[C@H]3COc4cc(N5CC[C@H]6CNC[C@H]65)cc(F)c4C3)sc2n1 [Example 220, N-[(3R)-7-[(3aS,6aS)-octahydropyrrolo[2,3-c]pyrrol-1-yl]-5-fluoro-3,4-dihydro-2H-1-benzopyran-3-yl]-3-amino-6-methylthieno[2,3-b]pyridine-2-carboxamide]	7.30 to 9.00
Cc1cc(C)c2c(N)c(C(=O)N[C@H]3COc4cc(N5CC[C@H]6CNC[C@H]65)cc(F)c4C3)sc2n1 (single isomer, unassigned) [Example 222]	7.30 to 9.00
Cc1ccc2c(N)c(C(=O)N[C@H]3CCc4nc(N5CC[C@@H]6CNC[C@@H]65)ccc4C3)sc2n1 [Example 217, N-[(6S)-2-[(3aR,6aR)-octahydropyrrolo[2,3-c]pyrrol-1-yl]-5,6,7,8-tetrahydroquinolin-6-yl]-3-amino-6-methylthieno[2,3-b]pyridine-2-carboxamide]	7.30 to 9.00
N#Cc1c(N2CC3CCC(C2)N3)cc(F)c2c1OC[C@H](NC(=O)c1cnc3c(c1)[C@@H]1C[C@@H]1CN3)C2 [Example 228, (6aS,7aR)-N-[(3R)-8-cyano-7-{3,8-diazabicyclo[3.2.1]octan-3-yl}-5-fluoro-3,4-dihydro-2H-1-benzopyran-3-yl]-5H,6H,6aH,7H,7aH-cyclopropa[c]1,8-naphthyridine-2-carboxamide]	5.70 to 6.70
N#Cc1c(N2CC3CCC(C2)N3)cc(F)c2c1CC[C@H](NC(=O)c1cnc3c(c1)[C@H]1C[C@H]1CN3)C2 [Example 196, (6aR,7aS)-N-[(2S)-5-cyano-6-{3,8-diazabicyclo[3.2.1]octan-3-yl}-8-fluoro-1,2,3,4-tetrahydronaphthalen-2-yl]-5H,6H,6aH,7H,7aH-cyclopropa[c]1,8-naphthyridine-2-carboxamide]	< 5.70
Cc1ccc2c(N)c(C(=O)N[C@H]3COc4cc(N5C[C@@H](N)C(F)(F)C5)ccc4C3)sc2n1 [Example 257, 3-amino-N-[(3R)-7-[(4R)-4-amino-3,3-difluoropyrrolidin-1-yl]-3,4-dihydro-2H-1-benzopyran-3-yl]-6-methylthieno[2,3-b]pyridine-2-carboxamide]	7.30 to 9.00
